Measurements from paper PMC8799717, “Pharmacological targeting PIKfyve and tubulin as an effective treatment strategy for double-hit lymphoma” (Cell Death Discovery, 2022).

What was measured:
Assay in all cases: biochemical
Parameters in all cases: KINOMEscan active-site-directed competition binding panel, 468 kinases, percent of DMSO control at 1 uM
Settings in all cases: KINOMEscan binding, percent of DMSO control; read-out: Ctrl%
ERK3 = target: T1, ERK3 (Homo sapiens, UniProt Q16659)
T1 construct: gene MAPK6

[1] = target: T2, JAK1(JH2domain-pseudokinase) (Homo sapiens, UniProt P23458)
T2 construct: JH2domain-pseudokinase
T2 sequence (P23458 whole entry): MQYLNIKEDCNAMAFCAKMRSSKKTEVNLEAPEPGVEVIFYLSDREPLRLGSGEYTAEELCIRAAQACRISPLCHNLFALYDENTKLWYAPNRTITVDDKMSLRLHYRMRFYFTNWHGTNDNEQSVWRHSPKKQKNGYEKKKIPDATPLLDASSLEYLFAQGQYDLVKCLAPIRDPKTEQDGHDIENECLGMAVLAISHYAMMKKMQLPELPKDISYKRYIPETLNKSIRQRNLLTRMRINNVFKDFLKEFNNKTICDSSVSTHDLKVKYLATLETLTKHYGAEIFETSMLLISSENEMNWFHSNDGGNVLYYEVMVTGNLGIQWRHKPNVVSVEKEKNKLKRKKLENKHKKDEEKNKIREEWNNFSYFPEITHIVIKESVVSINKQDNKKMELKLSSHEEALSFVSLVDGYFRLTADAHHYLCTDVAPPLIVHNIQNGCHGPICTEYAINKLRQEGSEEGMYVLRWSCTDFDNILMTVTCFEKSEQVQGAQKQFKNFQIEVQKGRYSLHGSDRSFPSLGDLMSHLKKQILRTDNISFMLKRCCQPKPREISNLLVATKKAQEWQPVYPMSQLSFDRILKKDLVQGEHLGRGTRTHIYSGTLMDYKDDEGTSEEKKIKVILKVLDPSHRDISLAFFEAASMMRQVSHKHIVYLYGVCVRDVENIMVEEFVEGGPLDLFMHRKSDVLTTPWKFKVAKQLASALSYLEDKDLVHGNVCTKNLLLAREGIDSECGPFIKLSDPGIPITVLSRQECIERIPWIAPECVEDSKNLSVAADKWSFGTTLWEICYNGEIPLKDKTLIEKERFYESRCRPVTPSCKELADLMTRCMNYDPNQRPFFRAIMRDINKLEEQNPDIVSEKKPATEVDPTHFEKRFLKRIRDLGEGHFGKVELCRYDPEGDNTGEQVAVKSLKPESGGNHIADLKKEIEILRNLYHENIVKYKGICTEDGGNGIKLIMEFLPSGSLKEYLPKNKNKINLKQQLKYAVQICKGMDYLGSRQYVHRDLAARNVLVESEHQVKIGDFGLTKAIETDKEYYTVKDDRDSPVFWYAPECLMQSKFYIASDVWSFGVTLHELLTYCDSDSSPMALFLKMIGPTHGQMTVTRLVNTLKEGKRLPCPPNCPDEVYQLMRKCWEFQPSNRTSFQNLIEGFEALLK

MLK1 = target: T3, MLK1 (Homo sapiens, UniProt P80192)
T3 construct: gene MAP3K9

EPHB2 = EPHB2 (Homo sapiens, UniProt P29323)
EPHB2, sequence (P29323 whole entry): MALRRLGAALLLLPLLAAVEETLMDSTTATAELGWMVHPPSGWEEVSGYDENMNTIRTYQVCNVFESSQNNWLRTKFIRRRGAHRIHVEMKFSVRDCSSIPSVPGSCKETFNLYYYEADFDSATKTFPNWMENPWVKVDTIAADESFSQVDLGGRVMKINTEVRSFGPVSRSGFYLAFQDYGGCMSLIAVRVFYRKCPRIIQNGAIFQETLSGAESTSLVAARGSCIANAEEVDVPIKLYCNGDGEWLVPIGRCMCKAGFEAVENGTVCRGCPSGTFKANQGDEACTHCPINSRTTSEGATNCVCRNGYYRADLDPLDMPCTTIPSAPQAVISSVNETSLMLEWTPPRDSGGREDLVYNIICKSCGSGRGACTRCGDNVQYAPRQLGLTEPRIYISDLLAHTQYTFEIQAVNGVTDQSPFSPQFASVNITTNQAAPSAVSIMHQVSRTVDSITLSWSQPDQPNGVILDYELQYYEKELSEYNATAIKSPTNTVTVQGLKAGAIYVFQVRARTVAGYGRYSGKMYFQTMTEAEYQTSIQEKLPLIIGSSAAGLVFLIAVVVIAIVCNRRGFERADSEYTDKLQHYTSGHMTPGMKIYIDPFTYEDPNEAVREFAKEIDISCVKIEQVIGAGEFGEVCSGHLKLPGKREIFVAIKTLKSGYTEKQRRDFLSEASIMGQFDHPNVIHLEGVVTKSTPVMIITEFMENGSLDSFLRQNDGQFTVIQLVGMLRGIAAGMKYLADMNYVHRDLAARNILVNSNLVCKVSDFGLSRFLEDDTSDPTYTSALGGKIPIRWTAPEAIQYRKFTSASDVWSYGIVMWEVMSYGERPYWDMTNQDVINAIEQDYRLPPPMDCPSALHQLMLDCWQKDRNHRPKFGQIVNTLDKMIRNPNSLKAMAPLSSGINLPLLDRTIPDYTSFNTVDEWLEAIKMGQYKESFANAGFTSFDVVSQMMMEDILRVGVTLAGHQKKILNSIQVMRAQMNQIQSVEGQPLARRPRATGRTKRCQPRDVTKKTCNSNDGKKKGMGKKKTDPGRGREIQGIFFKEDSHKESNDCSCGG

ZAP70 = ZAP70 (Homo sapiens, UniProt P43403)
RIPK4 = RIPK4 (Homo sapiens, UniProt P57078)
MET(Y1235D) = MET(Y1235D) (Homo sapiens, UniProt P08581, Y1235D)
MET(Y1235D), sequence (P08581 whole entry Y1235D): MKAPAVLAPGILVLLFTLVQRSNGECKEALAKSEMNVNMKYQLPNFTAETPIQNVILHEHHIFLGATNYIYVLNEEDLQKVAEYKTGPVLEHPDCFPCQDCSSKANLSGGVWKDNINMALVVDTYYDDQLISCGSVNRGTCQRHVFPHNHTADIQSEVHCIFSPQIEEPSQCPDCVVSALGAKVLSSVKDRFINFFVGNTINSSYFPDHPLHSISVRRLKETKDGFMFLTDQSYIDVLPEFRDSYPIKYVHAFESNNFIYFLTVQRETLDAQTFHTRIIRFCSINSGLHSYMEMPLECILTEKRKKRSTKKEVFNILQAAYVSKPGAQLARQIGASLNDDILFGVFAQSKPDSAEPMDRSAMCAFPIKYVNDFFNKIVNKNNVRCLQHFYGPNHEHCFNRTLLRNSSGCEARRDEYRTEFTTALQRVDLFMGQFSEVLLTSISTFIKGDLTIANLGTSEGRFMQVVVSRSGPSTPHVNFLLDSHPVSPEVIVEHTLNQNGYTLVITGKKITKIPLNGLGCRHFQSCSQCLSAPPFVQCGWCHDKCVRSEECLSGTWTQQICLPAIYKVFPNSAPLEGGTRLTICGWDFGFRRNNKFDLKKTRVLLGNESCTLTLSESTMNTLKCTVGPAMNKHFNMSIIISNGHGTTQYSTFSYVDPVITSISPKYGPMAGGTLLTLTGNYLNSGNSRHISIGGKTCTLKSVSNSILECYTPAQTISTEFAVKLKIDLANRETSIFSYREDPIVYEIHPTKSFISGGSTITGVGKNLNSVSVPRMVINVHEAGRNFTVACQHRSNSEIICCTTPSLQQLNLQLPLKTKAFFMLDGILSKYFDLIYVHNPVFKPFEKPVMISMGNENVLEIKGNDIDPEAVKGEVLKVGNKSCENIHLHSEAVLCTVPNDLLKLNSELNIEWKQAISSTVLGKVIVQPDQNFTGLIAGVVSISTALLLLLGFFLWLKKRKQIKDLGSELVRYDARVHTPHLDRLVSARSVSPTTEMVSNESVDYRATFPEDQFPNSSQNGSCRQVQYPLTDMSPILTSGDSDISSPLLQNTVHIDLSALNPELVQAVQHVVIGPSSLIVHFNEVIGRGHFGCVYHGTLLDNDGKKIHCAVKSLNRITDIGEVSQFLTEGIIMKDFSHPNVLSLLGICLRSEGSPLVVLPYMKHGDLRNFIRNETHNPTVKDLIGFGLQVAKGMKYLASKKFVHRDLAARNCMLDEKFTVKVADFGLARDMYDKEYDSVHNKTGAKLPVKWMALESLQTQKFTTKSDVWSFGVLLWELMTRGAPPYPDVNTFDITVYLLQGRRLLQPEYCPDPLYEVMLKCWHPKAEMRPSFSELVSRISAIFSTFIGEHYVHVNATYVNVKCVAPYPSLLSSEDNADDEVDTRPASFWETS

CSNK2A2 = CSNK2A2 (Homo sapiens, UniProt P19784)
HPK1 = target: T4, HPK1 (Homo sapiens, UniProt Q92918)
T4 construct: gene MAP4K1

ERBB3 = ERBB3 (Homo sapiens, UniProt P21860)
RET = RET (Homo sapiens, UniProt P07949)
CSNK1A1L = CSNK1A1L (Homo sapiens, UniProt Q8N752)
TSSK3 = TSSK3 (Homo sapiens, UniProt Q96PN8)
ACVR2A = ACVR2A (Homo sapiens, UniProt P27037)
[2] = target: T5, ABL1(Y253F)-phosphorylated (Homo sapiens, UniProt P00519, Y253F)
T5 construct: phosphorylated

TGFBR2 = TGFBR2 (Homo sapiens, UniProt P37173)
FLT3(N841I) = FLT3(N841I) (Homo sapiens, UniProt P36888, N841I)
PRKG2 = PRKG2 (Homo sapiens, UniProt Q13237)
CSNK1G3 = CSNK1G3 (Homo sapiens, UniProt Q9Y6M4)
MUSK = MUSK (Homo sapiens, UniProt O15146)
CSNK1G1 = CSNK1G1 (Homo sapiens, UniProt Q9HCP0)
TNIK = TNIK (Homo sapiens, UniProt Q9UKE5)
TNIK, sequence (Q9UKE5 whole entry): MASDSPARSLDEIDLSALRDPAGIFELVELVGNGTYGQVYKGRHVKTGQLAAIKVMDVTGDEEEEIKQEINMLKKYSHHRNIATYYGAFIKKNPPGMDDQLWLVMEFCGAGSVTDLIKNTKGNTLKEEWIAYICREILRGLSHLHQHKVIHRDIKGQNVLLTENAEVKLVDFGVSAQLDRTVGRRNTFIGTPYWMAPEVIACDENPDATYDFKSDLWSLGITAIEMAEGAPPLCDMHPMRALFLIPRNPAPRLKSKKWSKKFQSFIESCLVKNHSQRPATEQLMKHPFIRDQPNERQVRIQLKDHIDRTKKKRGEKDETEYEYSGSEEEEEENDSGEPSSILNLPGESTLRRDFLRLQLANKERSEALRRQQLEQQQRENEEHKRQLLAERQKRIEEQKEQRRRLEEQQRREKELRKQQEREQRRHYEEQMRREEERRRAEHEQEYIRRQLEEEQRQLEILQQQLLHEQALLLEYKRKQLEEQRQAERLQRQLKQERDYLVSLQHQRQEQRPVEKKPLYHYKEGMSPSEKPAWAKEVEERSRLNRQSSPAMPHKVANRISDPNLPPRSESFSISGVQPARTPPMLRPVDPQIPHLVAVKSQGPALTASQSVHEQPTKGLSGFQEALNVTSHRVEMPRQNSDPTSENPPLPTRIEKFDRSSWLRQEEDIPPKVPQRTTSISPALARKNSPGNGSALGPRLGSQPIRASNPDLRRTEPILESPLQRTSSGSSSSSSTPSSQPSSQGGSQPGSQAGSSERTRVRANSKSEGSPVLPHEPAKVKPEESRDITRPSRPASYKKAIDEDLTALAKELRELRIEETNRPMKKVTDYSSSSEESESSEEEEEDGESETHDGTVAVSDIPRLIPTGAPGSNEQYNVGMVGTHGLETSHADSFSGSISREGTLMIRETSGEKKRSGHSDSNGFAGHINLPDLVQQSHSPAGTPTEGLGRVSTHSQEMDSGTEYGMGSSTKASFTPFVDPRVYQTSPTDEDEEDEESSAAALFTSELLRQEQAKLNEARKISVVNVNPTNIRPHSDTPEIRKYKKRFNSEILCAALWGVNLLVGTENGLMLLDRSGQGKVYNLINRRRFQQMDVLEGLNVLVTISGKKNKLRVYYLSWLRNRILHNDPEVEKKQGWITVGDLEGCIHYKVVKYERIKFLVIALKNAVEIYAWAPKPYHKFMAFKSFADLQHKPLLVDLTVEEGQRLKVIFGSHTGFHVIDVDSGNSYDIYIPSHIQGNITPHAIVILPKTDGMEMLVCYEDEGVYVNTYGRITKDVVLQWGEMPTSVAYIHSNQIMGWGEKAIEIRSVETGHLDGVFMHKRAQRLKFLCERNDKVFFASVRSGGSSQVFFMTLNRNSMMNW

IKK-alpha = target: T6, IKK-alpha (Homo sapiens, UniProt O15111)
T6 construct: gene CHUK

HIPK3 = HIPK3 (Homo sapiens, UniProt Q9H422)

## Cc1ccc(NC(=O)c2cccc(C(F)(F)F)c2)cc1Nc1cc(-c2cccnc2)nc2[nH]ccc12 [HZX-02-059]
ERK3
  remaining binding at 1 µM: 100%
[1]
  remaining binding at 1 µM: 64%
MLK1
  remaining binding at 1 µM: 100%
EPHB2
  remaining binding at 1 µM: 4.7%
ZAP70
  remaining binding at 1 µM: 76%
RIPK4
  remaining binding at 1 µM: 75%
MET(Y1235D)
  remaining binding at 1 µM: 95%
CSNK2A2
  remaining binding at 1 µM: 100%
HPK1
  remaining binding at 1 µM: 72%
ERBB3
  remaining binding at 1 µM: 100%
RET
  remaining binding at 1 µM: 90%
CSNK1A1L
  remaining binding at 1 µM: 92%
TSSK3
  remaining binding at 1 µM: 100%
ACVR2A
  remaining binding at 1 µM: 75%
[2]
  remaining binding at 1 µM: 49%
TGFBR2
  remaining binding at 1 µM: 90%
FLT3(N841I)
  remaining binding at 1 µM: 88%
PRKG2
  remaining binding at 1 µM: 89%
CSNK1G3
  remaining binding at 1 µM: 100%
MUSK
  remaining binding at 1 µM: 100%
CSNK1G1
  remaining binding at 1 µM: 83%
TNIK
  remaining binding at 1 µM: 100%
IKK-alpha
  remaining binding at 1 µM: 100%
HIPK3
  remaining binding at 1 µM: 94%
